Measured values reported in the supplement of paper PMC4862054.

Experiments:
Assay in all cases: normalised viability (% of control), CellTiter-Blue; higher = more viable cells (about 100 = DMSO control)
Conditions in all cases: incubation time: 72 h
HCC1143 = tested on: HCC1143
Method in brief: (§1)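 After 72 h on compound-loaded 384-well plates, breast cancer cell lines received 2.5 µl CellTiter-Blue reagent for 2 h at 37 °C. Fluorescence at 560/590 nm was scaled per plate so that vehicle was 100 and a positive kill control was 0. The value stands for normalised viability at a single listed concentration of the series.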

CAL-120 = tested on: CAL-120
Method in brief: as §1

DU-4475 = tested on: DU-4475
Method in brief: as §1

BT-474 = tested on: BT-474
Method in brief: as §1

Hs578T = tested on: Hs578T
Method in brief: as §1

BT-549 = tested on: BT-549
Method in brief: as §1

CAL-51 = tested on: CAL-51
Method in brief: as §1

CAL-85-1 = tested on: CAL-85-1
Method in brief: as §1

MDA-MB-468 = tested on: MDA-MB-468
Method in brief: as §1

HCC1599 = tested on: HCC1599
Method in brief: as §1

MDA-MB-231 = tested on: MDA-MB-231
Method in brief: as §1

CAL-148 = tested on: CAL-148
Method in brief: as §1

C#Cc1cccc(Nc2ncnc3cc(OCCOC)c(OCCOC)cc23)c1 [Erlotinib]
normalised viability (HCC1143; 10 nM): 105%
normalised viability (HCC1143; 1000 nM): 90.7%
normalised viability (HCC1143; 10000 nM): 68.8%
normalised viability (CAL-120; 10 nM): 91.4%
normalised viability (CAL-120; 1000 nM): 95.1%
normalised viability (CAL-120; 10000 nM): 50.1%
normalised viability (DU-4475; 3 nM): 107%
normalised viability (DU-4475; 30 nM): 90.7%
normalised viability (DU-4475; 100 nM): 86.7%
normalised viability (BT-474; 10 nM): 98.5%
normalised viability (BT-474; 1000 nM): 90.1%
normalised viability (BT-474; 10000 nM): 51%
normalised viability (Hs578T; 10 nM): 123%
normalised viability (Hs578T; 1000 nM): 120%
normalised viability (Hs578T; 10000 nM): 69%
normalised viability (BT-549; 10 nM): 117%
normalised viability (BT-549; 1000 nM): 106%
normalised viability (BT-549; 10000 nM): 66.9%
normalised viability (CAL-51; 3 nM): 102%
normalised viability (CAL-51; 30 nM): 96.1%
normalised viability (CAL-51; 100 nM): 98.8%
normalised viability (CAL-85-1; 3 nM): 93.7%
normalised viability (CAL-85-1; 30 nM): 82.8%
normalised viability (CAL-85-1; 100 nM): 88%
normalised viability (MDA-MB-468; 10 nM): 108%
normalised viability (MDA-MB-468; 1000 nM): 75.2%
normalised viability (MDA-MB-468; 10000 nM): 43.6%
normalised viability (HCC1599; 10 nM): 91%
normalised viability (HCC1599; 1000 nM): 74.5%
normalised viability (HCC1599; 10000 nM): 54.8%
normalised viability (MDA-MB-231; 10 nM): 95%
normalised viability (MDA-MB-231; 1000 nM): 120%
normalised viability (MDA-MB-231; 10000 nM): 95.5%
normalised viability (CAL-148; 3 nM): 89.7%
normalised viability (CAL-148; 30 nM): 102%
normalised viability (CAL-148; 100 nM): 98.2%

N[C@@H](CSC(c1ccccc1)(c1ccccc1)c1ccccc1)C(=O)O [S-trityl-L-cysteine]
normalised viability (HCC1143; 40 nM): 134%
normalised viability (HCC1143; 4000 nM): 113%
normalised viability (HCC1143; 40000 nM): 58.6%
normalised viability (CAL-120; 40 nM): 110%
normalised viability (CAL-120; 4000 nM): 42.4%
normalised viability (CAL-120; 40000 nM): 35.2%
normalised viability (DU-4475; 12 nM): 117%
normalised viability (DU-4475; 120 nM): 92.9%
normalised viability (DU-4475; 400 nM): 102%
normalised viability (BT-474; 40 nM): 111%
normalised viability (BT-474; 4000 nM): 94%
normalised viability (BT-474; 40000 nM): 25.9%
normalised viability (Hs578T; 40 nM): 114%
normalised viability (Hs578T; 4000 nM): 36.6%
normalised viability (Hs578T; 40000 nM): 16.8%
normalised viability (BT-549; 40 nM): 83.3%
normalised viability (BT-549; 4000 nM): 92.2%
normalised viability (BT-549; 40000 nM): 24%
normalised viability (CAL-51; 12 nM): 87%
normalised viability (CAL-51; 120 nM): 90.5%
normalised viability (CAL-51; 400 nM): 87%
normalised viability (CAL-85-1; 12 nM): 105%
normalised viability (CAL-85-1; 120 nM): 106%
normalised viability (CAL-85-1; 400 nM): 101%
normalised viability (MDA-MB-468; 40 nM): 102%
normalised viability (MDA-MB-468; 4000 nM): 34.5%
normalised viability (MDA-MB-468; 40000 nM): 34.6%
normalised viability (HCC1599; 40 nM): 94.9%
normalised viability (HCC1599; 4000 nM): 99.3%
normalised viability (HCC1599; 40000 nM): 102%
normalised viability (MDA-MB-231; 40 nM): 86.8%
normalised viability (MDA-MB-231; 4000 nM): 27.9%
normalised viability (MDA-MB-231; 40000 nM): 25.9%
normalised viability (CAL-148; 12 nM): 112%
normalised viability (CAL-148; 120 nM): 114%
normalised viability (CAL-148; 400 nM): 114%

O=P1(NCCCl)OCCCN1CCCl (centres undefined) [Ifosfamide]
normalised viability (HCC1143; 10 nM): 80.1%
normalised viability (HCC1143; 1000 nM): 82.4%
normalised viability (HCC1143; 10000 nM): 91.1%
normalised viability (CAL-120; 10 nM): 88.7%
normalised viability (CAL-120; 1000 nM): 99.3%
normalised viability (CAL-120; 10000 nM): 85.2%
normalised viability (DU-4475; 3 nM): 88.5%
normalised viability (DU-4475; 30 nM): 101%
normalised viability (DU-4475; 100 nM): 81.9%
normalised viability (BT-474; 10 nM): 114%
normalised viability (BT-474; 1000 nM): 112%
normalised viability (BT-474; 10000 nM): 120%
normalised viability (Hs578T; 10 nM): 102%
normalised viability (Hs578T; 1000 nM): 102%
normalised viability (Hs578T; 10000 nM): 115%
normalised viability (BT-549; 10 nM): 79.4%
normalised viability (BT-549; 1000 nM): 90.8%
normalised viability (BT-549; 10000 nM): 96.7%
normalised viability (CAL-51; 3 nM): 114%
normalised viability (CAL-51; 30 nM): 110%
normalised viability (CAL-51; 100 nM): 107%
normalised viability (CAL-85-1; 3 nM): 88.3%
normalised viability (CAL-85-1; 30 nM): 89.1%
normalised viability (CAL-85-1; 100 nM): 95.7%
normalised viability (MDA-MB-468; 10 nM): 110%
normalised viability (MDA-MB-468; 1000 nM): 120%
normalised viability (MDA-MB-468; 10000 nM): 103%
normalised viability (HCC1599; 10 nM): 100%
normalised viability (HCC1599; 1000 nM): 93.9%
normalised viability (HCC1599; 10000 nM): 89.7%
normalised viability (MDA-MB-231; 10 nM): 101%
normalised viability (MDA-MB-231; 1000 nM): 97.3%
normalised viability (MDA-MB-231; 10000 nM): 109%
normalised viability (CAL-148; 3 nM): 89.8%
normalised viability (CAL-148; 30 nM): 92%
normalised viability (CAL-148; 100 nM): 93%

Cc1ccc(-n2nc(C(C)(C)C)cc2NC(=O)Nc2ccc(OCCN3CCOCC3)c3ccccc23)cc1 [Doramapimod]
normalised viability (HCC1143; 10 nM): 94.2%
normalised viability (HCC1143; 1000 nM): 92.1%
normalised viability (HCC1143; 10000 nM): 90.3%
normalised viability (CAL-120; 10 nM): 95.4%
normalised viability (CAL-120; 1000 nM): 81.2%
normalised viability (CAL-120; 10000 nM): 95.8%
normalised viability (DU-4475; 3 nM): 123%
normalised viability (DU-4475; 30 nM): 89.1%
normalised viability (DU-4475; 100 nM): 97.1%
normalised viability (BT-474; 10 nM): 101%
normalised viability (BT-474; 1000 nM): 101%
normalised viability (BT-474; 10000 nM): 96.9%
normalised viability (Hs578T; 10 nM): 111%
normalised viability (Hs578T; 1000 nM): 120%
normalised viability (Hs578T; 10000 nM): 113%
normalised viability (BT-549; 10 nM): 98.1%
normalised viability (BT-549; 1000 nM): 104%
normalised viability (BT-549; 10000 nM): 84.7%
normalised viability (CAL-51; 3 nM): 116%
normalised viability (CAL-51; 30 nM): 105%
normalised viability (CAL-51; 100 nM): 95.7%
normalised viability (CAL-85-1; 3 nM): 94.4%
normalised viability (CAL-85-1; 30 nM): 85.4%
normalised viability (CAL-85-1; 100 nM): 80.4%
normalised viability (MDA-MB-468; 10 nM): 96%
normalised viability (MDA-MB-468; 1000 nM): 115%
normalised viability (MDA-MB-468; 10000 nM): 119%
normalised viability (HCC1599; 10 nM): 93.8%
normalised viability (HCC1599; 1000 nM): 110%
normalised viability (HCC1599; 10000 nM): 91.2%
normalised viability (MDA-MB-231; 10 nM): 99.2%
normalised viability (MDA-MB-231; 1000 nM): 99%
normalised viability (MDA-MB-231; 10000 nM): 109%
normalised viability (CAL-148; 3 nM): 90%
normalised viability (CAL-148; 30 nM): 90.9%
normalised viability (CAL-148; 100 nM): 87.5%
